From patent US20190127359A1, “Compounds & Methods for the Enhanced Degradation of Targeted Proteins & Other Polypeptides by an E3 Ubiquitin Ligase” (YALE UNIVERSITY, priority 2012, published 2019)

Each compound was assayed against VHL (Homo sapiens, UniProt P40337) (assay: Fluorescence polarization competition assay (HIF-1α peptide FP displacement)). Conditions: 10% DMSO.

| SMILES | IC50 (μM) 10% DMSO |
| --- | --- |
| CS(=O)(=O)N1C[C@H](O)C[C@H]1C(=O)NCCc1ccc(O)cc1 [VL006] | Inactive |
| CS(=O)(=O)N1C[C@H](O)C[C@H]1C(=O)Nc1ccc(Br)cc1F [VL010] | Inactive |

Second part, the compound after the results:

| IC50 (μM) 10% DMSO | SMILES |
| --- | --- |
| Inactive | CS(=O)(=O)N1C[C@H](O)C[C@H]1C(=O)NCc1cccc(Cl)c1 [VL007] |
| Inactive | Cc1ccc(S(=O)(=O)N2C[C@H](O)C[C@H]2C(=O)Nc2ccc(Br)cc2F)cc1 [VL009] |

Same assay, conditions: IC50 (μM) 1% DMSO, 1% DMSO

| IC50 | SMILES |
| --- | --- |
| 46 µM | O=C(NCc1ccc(Cl)cc1)[C@@H]1C[C@@H](O)CN1C(=O)c1ccccc1Cl [VL073] |

Same assay, conditions: IC50 (μM) 10% DMSO, 10% DMSO

| SMILES | IC50 |
| --- | --- |
| Cc1cc(CC(=O)N2C[C@H](O)C[C@H]2C(=O)NCCc2ccc(O)cc2)on1 [VL002, (2S,4R)-4-hydroxy-N-(4-hydroxyphenethyl)-1-(2-(3-methylisoxazol-5-yl)acetyl)pyrrolidine-2-carboxamide] | 241 µM |
| Cc1ccc(S(=O)(=O)N2C[C@H](O)C[C@H]2C(=O)NCCc2ccc(O)cc2)cc1 [VL003] | > 1000 µM |
| Cc1cc(CC(=O)N2C[C@H](O)C[C@H]2C(=O)NCc2cccc(Cl)c2)on1 [VL004, (2S,4R)—N-(3-chlorobenzyl)-4-hydroxy-1-(2-(3-methylisoxazol-5-yl)acetyl)pyrrolidine-2-carboxamide] | 123 µM |
| O=C(NCCc1ccc(O)cc1)[C@@H]1C[C@@H](O)CN1C(=O)Cc1nnn[nH]1 [VL005] | > 1000 µM |
| O=C(NCc1cccc(Cl)c1)[C@@H]1C[C@@H](O)CN1C(=O)Cc1nnn[nH]1 [VL012] | > 1000 µM |
| Cc1cc(CC(=O)N2C[C@H](O)C[C@H]2C(=O)NCc2ccc(-c3ccccc3)cc2)on1 [VL014] | 4.7 µM |
| Cc1cc(CC(=O)N2C[C@H](O)C[C@H]2C(=O)NCCN2CCOCC2)on1 [VL015] | > 1000 µM |
| Cc1cc(CC(=O)N2C[C@H](O)C[C@H]2C(=O)NCc2ccccn2)on1 [VL019] | 451 µM |
| Cc1cc(CC(=O)N2C[C@H](O)C[C@H]2C(=O)NCc2cccc(C(F)(F)F)c2)on1 [VL022] | ~870 µM |
| COc1cccc(CNC(=O)[C@@H]2C[C@@H](O)CN2C(=O)Cc2cc(C)no2)c1 [VL024] | 511 µM |
| CNC(=O)c1cc(Oc2ccc(NC(=O)[C@@H]3C[C@@H](O)CN3C(=O)Cc3cc(C)no3)cc2)ccn1 [VL027] | > 1000 µM |
| Cc1cc(CC(=O)N2C[C@H](O)C[C@H]2C(=O)NCc2ccccc2Cl)on1 [VL028] | 210 µM |
| Cc1cc(CC(=O)N2C[C@H](O)C[C@H]2C(=O)N[C@H](C)c2ccccc2)on1 [VL033] | > 1000 µM |
| Cc1cc(CC(=O)N2C[C@H](O)C[C@H]2C(=O)NCc2ccncc2)on1 [VL037] | 88.8 µM |
| Cc1cc(CC(=O)N2C[C@H](O)C[C@H]2C(=O)N2CCc3ccccc3C2)on1 [VL039] | > 1000 µM |
| COc1ccccc1N1CCN(C(=O)[C@@H]2C[C@@H](O)CN2C(=O)Cc2cc(C)no2)CC1 [VL043] | > 1000 µM |
| Cc1cc(CC(=O)N2C[C@H](O)C[C@H]2C(=O)NCc2ccc(C)o2)on1 [VL044] | 286 µM |

| SMILES | IC50 |
| --- | --- |
| NC(=O)CCC(=O)N1C[C@H](O)C[C@H]1C(=O)NCc1ccc(Cl)cc1 [VL050] | 332 µM |
| O=C(NCc1ccc(Cl)cc1)[C@@H]1C[C@@H](O)CN1C(=O)Cc1cccs1 [VL053] | > 1000 µM |
| O=C(NCc1ccc(Cl)cc1)[C@@H]1C[C@@H](O)CN1C(=O)c1cccc(Cl)c1 [VL054] | 140 µM |
| O=C(NCc1ccc(Cl)cc1)[C@@H]1C[C@@H](O)CN1C(=O)Cc1cccc(Br)c1 [VL055] | 910 µM |
| N#Cc1ccc(CC(=O)N2C[C@H](O)C[C@H]2C(=O)NCc2ccc(Cl)cc2)cc1 [VL056] | 939 µM |
| COc1cc(/C=C/C(=O)N2C[C@H](O)C[C@H]2C(=O)NCc2ccc(Cl)cc2)cc(OC)c1O [VL057] | > 1000 µM |
| CS(=O)(=O)c1ccc(CC(=O)N2C[C@H](O)C[C@H]2C(=O)NCc2ccc(Cl)cc2)cc1 [VL058] | > 1000 µM |
| O=C(NCc1ccc(Cl)cc1)[C@@H]1C[C@@H](O)CN1C(=O)c1cc(-c2ccccc2)on1 [VL060] | > 1000 µM |
| N#Cc1cc(S(=O)(=O)N2C[C@H](O)C[C@H]2C(=O)NCc2ccc(Cl)cc2)ccc1F [VL063] | > 1000 µM |
| O=C(NCc1ccc(Cl)cc1)[C@@H]1C[C@@H](O)CN1C(=O)c1ccccc1[N+](=O)[O-] [VL065] | 74.2 µM |
| N#Cc1ccc(CC(=O)N2C[C@H](O)C[C@H]2C(=O)NCc2ccc(Cl)cc2)s1 [VL068] | > 1000 µM |
| O=C(NCc1ccc(Cl)cc1)[C@@H]1C[C@@H](O)CN1C(=O)c1ccccc1Cl [VL073] | 39 µM |
| O=C(NCc1ccc(Cl)cc1)[C@@H]1C[C@@H](O)CN1C(=O)c1ccc(Cl)cc1 [VL074] | 42.9 µM |
| N#Cc1cccc(C(=O)N2C[C@H](O)C[C@H]2C(=O)NCc2ccc(Cl)cc2)c1 [VL077] | 8.9 µM |
| COc1cccc(C(=O)N2C[C@H](O)C[C@H]2C(=O)NCc2ccc(Cl)cc2)c1 [VL079] | 26.3 µM |
| O=C(NCc1ccc(Cl)cc1)[C@@H]1C[C@@H](O)CN1C(=O)c1cccc(O)c1 [VL080] | 17 µM |
| O=C(NCc1ccc(Cl)cc1)[C@@H]1C[C@@H](O)CN1C(=O)c1ccc(Cl)cc1Br [VL081] | 15.5 µM |

Further lines, results first:

| IC50 | SMILES |
| --- | --- |
| > 1000 µM | O=C(Nc1ccc(Br)cc1F)[C@@H]1C[C@@H](O)CN1S(=O)(=O)c1ccc2ccccc2c1 [VL001] |
| > 1000 µM | Cc1ccc(S(=O)(=O)N2C[C@H](O)C[C@H]2C(=O)NCc2cccc(Cl)c2)cc1 [VL008] |
| > 1000 µM | Cc1cc(CC(=O)N2C[C@H](O)C[C@H]2C(=O)Nc2ccc(Br)cc2F)on1 [VL011] |
| 240 µM | O=C(NCc1cccc(Cl)c1)[C@@H]1C[C@@H](O)CN1S(=O)(=O)c1cccc([N+](=O)[O-])c1 [VL013] |
| ~730 µM | Cc1cc(CC(=O)N2C[C@H](O)C[C@H]2C(=O)NCc2cccs2)on1 [VL016] |
| ~510 µM | Cc1cc(CC(=O)N2C[C@H](O)C[C@H]2C(=O)NCc2ccc3c(c2)OCO3)on1 [VL017] |
| 280 µM | Cc1cc(CC(=O)N2C[C@H](O)C[C@H]2C(=O)NCc2ccc(N(C)C)cc2)on1 [VL018] |
| 295 µM | Cc1cc(CC(=O)N2C[C@H](O)C[C@H]2C(=O)NCc2ccc(F)cc2)on1 [VL020] |
| 36 µM | Cc1cc(CC(=O)N2C[C@H](O)C[C@H]2C(=O)NCc2ccc(Cl)cc2)on1 [VL021] |
| 589 µM | Cc1cc(CC(=O)N2C[C@H](O)C[C@H]2C(=O)NCc2ccc(Cl)c(C(F)(F)F)c2)on1 [VL023] |
| 517 µM | COc1ccc(CNC(=O)[C@@H]2C[C@@H](O)CN2C(=O)Cc2cc(C)no2)cc1OC [VL025] |
| 24.9 µM | Cc1cc(CC(=O)N2C[C@H](O)C[C@H]2C(=O)NCc2ccc(Br)cc2)on1 [VL029] |
| 215 µM | Cc1cc(CC(=O)N2C[C@H](O)C[C@H]2C(=O)NCc2ccc(Cl)c(Cl)c2)on1 [VL030] |
| 68.5 µM | Cc1cc(CC(=O)N2C[C@H](O)C[C@H]2C(=O)NCc2ccc(C(C)(C)C)cc2)on1 [VL031] |
| 639 µM | Cc1cc(CC(=O)N2C[C@H](O)C[C@H]2C(=O)N[C@@H](C)c2ccccc2)on1 [VL032] |
| 744 µM | Cc1cc(CC(=O)N2C[C@H](O)C[C@H]2C(=O)NCc2cccnc2)on1 [VL036] |
| 146 µM | Cc1cc(CC(=O)N2C[C@H](O)C[C@H]2C(=O)NCc2ccc(OC(F)(F)F)cc2)on1 [VL045] |
| 215 µM | Cc1cc(CC(=O)N2C[C@H](O)C[C@H]2C(=O)NCc2ccc(C(F)(F)F)cc2)on1 [VL046] |

| IC50 | SMILES |
| --- | --- |
| 24.8 µM | Cc1cc(CC(=O)N2C[C@H](O)C[C@H]2C(=O)NCc2ccc([N+](=O)[O-])cc2)on1 [VL048] |
| 15.1 µM | Cc1cc(CC(=O)N2C[C@H](O)C[C@H]2C(=O)N[C@@H](C)c2ccc([N+](=O)[O-])cc2)on1 [VL049] |
| > 1000 µM | N#CCC(=O)N1C[C@H](O)C[C@H]1C(=O)NCc1ccc(Cl)cc1 [VL051] |
| > 1000 µM | O=C(NCc1ccc(Cl)cc1)[C@@H]1C[C@@H](O)CN1C(=O)Cc1ccco1 [VL052] |
| 205 µM | N#Cc1cc(Br)cc(C(=O)N2C[C@H](O)C[C@H]2C(=O)NCc2ccc(Cl)cc2)c1 [VL059] |
| 419 µM | O=C(NCc1ccc(Cl)cc1)[C@@H]1C[C@@H](O)CN1C(=O)c1cc(C2CC2)on1 [VL061] |
| > 1000 µM | O=C(NCc1ccc(Cl)cc1)[C@@H]1C[C@@H](O)CN1C(=O)Cc1ccncc1 [VL062] |
| 110 µM | O=C(NCc1ccc(Cl)cc1)[C@@H]1C[C@@H](O)CN1C(=O)c1ccccc1 [VL064] |
| 72.4 µM | Cc1c(C(=O)N2C[C@H](O)C[C@H]2C(=O)NCc2ccc(Cl)cc2)cccc1[N+](=O)[O-] [VL066] |
| 70.7 µM | O=C(NCc1ccc(Cl)cc1)[C@@H]1C[C@@H](O)CN1C(=O)c1ccc([N+](=O)[O-])cc1 [VL067] |
| 23.8 µM | COc1ccc(C(=O)N2C[C@H](O)C[C@H]2C(=O)NCc2ccc(Cl)cc2)cc1OC [VL069] |
| 38.2 µM | Nc1ccccc1C(=O)N1C[C@H](O)C[C@H]1C(=O)NCc1ccc(Cl)cc1 [VL070] |
| 10.4 µM | Cc1c(N)cccc1C(=O)N1C[C@H](O)C[C@H]1C(=O)NCc1ccc(Cl)cc1 [VL071] |
| 29.5 µM | Nc1ccc(C(=O)N2C[C@H](O)C[C@H]2C(=O)NCc2ccc(Cl)cc2)cc1 [VL072] |
| 35.5 µM | O=C(NCc1ccc(Cl)cc1)[C@@H]1C[C@@H](O)CN1C(=O)c1cccc(F)c1 [VL075] |
| 19.6 µM | O=C(NCc1ccc(Cl)cc1)[C@@H]1C[C@@H](O)CN1C(=O)c1cccc(Br)c1 [VL076] |
| 60.2 µM | O=C(NCc1ccc(Cl)cc1)[C@@H]1C[C@@H](O)CN1C(=O)c1cccc(C(F)(F)F)c1 [VL078] |
| 29 µM | NS(=O)(=O)c1ccc(C(=O)N2C[C@H](O)C[C@H]2C(=O)NCc2ccc(Cl)cc2)cc1 [VL082] |

Same assay, conditions: Table 1A, binding of initial ligands to VHL; average of three independent trials, each in triplicate

| SMILES | IC50 |
| --- | --- |
| Cc1cc(CC(=O)N2C[C@H](O)C[C@H]2C(=O)NCc2cccc(Cl)c2)on1 [Compound 1] | 117 µM |
| Cc1cc(CC(=O)N2C[C@H](O)C[C@H]2C(=O)NCCc2ccc(O)cc2)on1 [Compound 2] | 120 µM |

Same assay, conditions: fluorescence polarization, result in words

| SMILES | displacement of the fluorescent HIF-1α peptide |
| --- | --- |
| Cc1cc(CC(=O)N2C[C@H](O)C[C@H]2C(=O)NCc2cccc(Cl)c2)on1 [Compound 1] | able to displace the fluorescent peptide albeit at high concentrations |
| Cc1cc(CC(=O)N2C[C@H](O)C[C@H]2C(=O)NCCc2ccc(O)cc2)on1 [Compound 2] | able to displace the fluorescent peptide albeit at high concentrations |

Same assay, conditions: read-out: IC50 (μM) 1% DMSO; 1% DMSO

| SMILES | IC50 |
| --- | --- |
| Cc1cc(CC(=O)N2C[C@H](O)C[C@H]2C(=O)NCCc2ccc(O)cc2)on1 [VL002, (2S,4R)-4-hydroxy-N-(4-hydroxyphenethyl)-1-(2-(3-methylisoxazol-5-yl)acetyl)pyrrolidine-2-carboxamide] | 120 µM |
| Cc1cc(CC(=O)N2C[C@H](O)C[C@H]2C(=O)NCc2cccc(Cl)c2)on1 [VL004, (2S,4R)—N-(3-chlorobenzyl)-4-hydroxy-1-(2-(3-methylisoxazol-5-yl)acetyl)pyrrolidine-2-carboxamide] | 117 µM |
| Cc1cc(CC(=O)N2C[C@H](O)C[C@H]2C(=O)NCc2ccccc2)on1 [VL034] | 130 µM |
